Source: US20110172296A1, “MODULATION OF TRANSFORMING GROWTH FACTOR-BETA 1 EXPRESSION” (priority 2010, published 2011)
Several values for one entry are separate records, joined by “and”; a condition that tells them apart may be missing. Equal values may be shown once. e = 2'-O-(2-methoxyethyl) (MOE); d = 2'-deoxy (DNA)

Tests used:
human TGF-beta1 mRNA [1] = assay: Antisense inhibition of human TGF-beta1 mRNA in HuVEC cells, single 10 nM dose, Lipofectamine 2000 (Example 2); format: cell-based
Method in brief: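 HuVEC cells (5,000/well) transfected with 10 nM 2-13-5 MOE gapmer (phosphorothioate, 5-methylcytosine) via Lipofectamine 2000 for 4 h, then recovered ~24 h. mRNA measured by qRT-PCR, normalized to RIBOGREEN total RNA; percent inhibition versus untreated cells.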

human TGF-beta1 mRNA [2] = assay: Dose-dependent antisense inhibition of human TGF-beta1 in HuVEC cells, Lipofectamine 2000, 0.9375-30 nM (Example 3); format: cell-based; conditions: Lipofectamine 2000
Procedure: Cells were plated at a density of 5,000 cells per well and transfected using Lipofectamine™ 2000 reagent with 0.9375 nM, 1.875 nM, 3.75 nM, 7.5 nM, 15 nM, and 30 nM concentrations of antisense oligonucleotide for 4 hours, as specified in Table 3. After a recovery period of approximately 16 hours, RNA was isolated from the cells and TGF-beta1 mRNA levels were measured by quantitative real-time PCR. Human TGF-beta1 primer probe set RTS 2980 (forward sequence CTCTCCGACCTGCCACAGA, SEQ ID NO: 160; reverse sequence […], SEQ ID NO: 53; probe sequence CCCTATTCAAGACCACCCACCTTCTGGTX, SEQ ID NO: 161) was used to measure mRNA levels. TGF-beta1 mRNA levels were adjusted according to total RNA content, as measured by RIBOGREEN®. Results are presented as percent inhibition of TGF-beta1, relative to untreated control cells.

human TGF-beta1 mRNA [3] = assay: Dose-dependent antisense inhibition of human TGF-beta1 in HuVEC cells, Lipofectamine 2000, 0.3292-80 nM, comparison with oligos of U.S. Pat. No. 6,436,909 (Example 4); format: cell-based
Procedure: The dose-dependent antisense inhibition potential of these gapmers was compared with that of Oligo IDs 104992 and 1138498 from U.S. Pat. No. 6,436,909. Cells were plated at a density of 5,000 cells per well and transfected using Lipofectamine™ 2000 reagent with 0.3292 nM, 0.9877 nM, 2.963 nM, 8.8889 nM, 26.6667 nM, and 80 nM concentrations of antisense oligonucleotide for 4 hours, as specified in Table 4. After a recovery period of approximately 16 hours, RNA was isolated from the cells and TGF-beta1 mRNA levels were measured by quantitative real-time PCR. Human TGF-beta1 primer probe set RTS 2980 was used to measure mRNA levels. TGF-beta1 mRNA levels were adjusted according to total RNA content, as measured by RIBOGREEN®. Results are presented as percent inhibition of TGF-beta1, relative to untreated control cells. […] All the antisense oligonucleotides in Table 4 target human TGF-beta1 mRNA (SEQ ID NO: 1).

human TGF-beta1 mRNA [4] = assay: Dose-dependent confirmation of antisense inhibition of human TGF-beta1 in HuVEC cells after large-scale synthesis, Lipofectamine 2000, 0.007-15 nM (Example 5); format: cell-based; conditions: for percent inhibition of TGF-beta1: Lipofectamine 2000
Procedure: Cells were plated at a density of 5,000 cells per well and transfected using Lipofectamine™ 2000 reagent with 0.007 nM, 0.021 nM, 0.062 nM, 0.185 nM, 0.556 nM, 1.667 nM, 5 nM, and 15 nM concentrations of antisense oligonucleotide for 4 hours, as specified in Table 5. After a recovery period of approximately 16 hours, RNA was isolated from the cells and TGF-beta1 mRNA levels were measured by quantitative real-time PCR. Human TGF-beta1 primer probe set RTS 2980 was used to measure mRNA levels. TGF-beta1 mRNA levels were adjusted according to total RNA content, as measured by RIBOGREEN®. Results are presented as percent inhibition of TGF-beta1, relative to untreated control cells.

human TGF-beta1 mRNA [5] = assay: Dose-dependent confirmation of antisense inhibition of human TGF-beta1 in HuVEC cells, electroporation (Example 6); format: cell-based
Procedure: The gapmers from Example 5 (see Table 5) were also tested at various doses in HuVEC cells using electroporation as the transfection reagent. Cells were plated at a density of 20,000 cells per well and transfected using electroporation with 0.15625 nM, 0.3125 nM, 0.625 nM, 1.25 nM, 2.5 nM, 5 nM, 10 nM, and 20 nM concentrations of antisense oligonucleotide for 4 hours, as specified in Table 6. After a recovery period of approximately 16 hours, RNA was isolated from the cells and TGF-beta1 mRNA levels were measured by quantitative real-time PCR. TGF-beta1 mRNA levels were adjusted according to total RNA content, as measured by RIBOGREEN®. Results are presented as percent inhibition of TGF-beta1, relative to untreated control cells.

BALB/c mice [6] = conditions: mouse, in vivo
Procedure: (§1) These gapmer oligonucleotides were designed to target human TGF-beta1 and have varying degrees of mismatch with murine TGF-beta1 sequence, as shown in Table 1. Oligo ID Nos. 413982 and 414040 have greater than 3 mismatches to the murine TGF-beta1 sequence. Oligo ID No. 414035 has 2 mismatches to murine TGF-beta1. Oligo ID No. 414036 has no mismatches to murine TGF-beta1.
(§2) BALB/c mice were injected with 25 mg/kg or 50 mg/kg of Oligo ID Nos. 413982, 414035, 414036, or 414040 twice a week for 4 weeks. A control group of mice was injected with phosphate buffered saline (PBS) twice a week for 4 weeks. Plasma transaminase levels were evaluated bi-weekly.
(§3) To evaluate the impact of TGF-beta1 antisense oligonucleotides on the hepatic function of mice described above, plasma concentrations of transaminases were measured using an automated clinical chemistry analyzer (Hitachi Olympus AU400e, Melville, N.Y.).

BALB/c mice [7] = assay: Tolerability in BALB/c mice: plasma transaminases ALT and AST (Example 7); conditions: for aspartate transaminase levels: plasma
Procedure: as §1, §2, §3

[8] = tested on: Col1α2 mRNA expression in rat skin; assay: Col1α2 mRNA expression in rat model of skin fibrosis and wounding, intradermal treatment (Example 9); format: in vivo
From the text: Scar and fibrotic tissues are mainly composed of collagen, especially collagen1α2 (Col1α2). Therefore, the expression of Col1α2 can be used as a marker for the severity of scarring, especially in skin. We have evaluated the ability of a TGF-beta1 ASO to suppress the expression of Col1α2 in rat skin subsequent to full-thickness skin wounding, an injury that typically leads to a 4-6 fold induction in Col1α2 expression.
On Day 1 of the study, a 0.8 centimeter biopsy punch was used to create full-thickness wounds on the back of anesthetized adult hairless rats. Two biopsies were performed on each rat's back; one in the lower left quadrant, and one in the upper right quadrant. The wounds were left open, but dressed with a sterile occlusive bandage, which were left in place for 24 hours.
Biopsy sites were treated intradermally with PBS (vehicle) or a 3 mg dose of a rat specific TGF-beta1 antisense oligonucleotide (Oligo ID 433849; SEQ ID NO. 166) on Days 1, 5, 9, and 13 post-biopsy. Animals were sacrificed on Day 14 post-biopsy. […]
A subset of the excised skin from each initial biopsy site was retained and prepared for Col1α2 mRNA expression (by RT-PCR). […] On day 15, animals were euthanized, a sample of skin from the center of the wound was obtained with a 0.5 cm biopsy punch, and Col1α2 mRNA expression determined.

414035 (antisense GTCCTTAAATACAGCCCCCA; sugars from the 5' end e2 d13 e5, backbone and methylation of C not given here) [compound 414035]
% inhibition (human TGF-beta1 mRNA [1]; 10 nM oligonucleotide, HuVEC, relative to untreated control cells, gapmers targeted to SEQ ID NO: 1): 89% | inhibition of a TGF-beta1 mRNA (human TGF-beta1 mRNA [1]; threshold lists of Oligo IDs, 10 nM): 60% and 65% and 70% and 75% and 80% and 85% | percent inhibition of TGF-beta1 (human TGF-beta1 mRNA [2]; 0.9375 nM): 64% | percent inhibition of TGF-beta1 (human TGF-beta1 mRNA [2]; 1.875 nM): 75% | percent inhibition of TGF-beta1 (human TGF-beta1 mRNA [2]; 3.75 nM): 88% | percent inhibition of TGF-beta1 (human TGF-beta1 mRNA [2]; 7.5 nM): 94% | percent inhibition of TGF-beta1 (human TGF-beta1 mRNA [2]; 15 nM): 95% | percent inhibition of TGF-beta1 (human TGF-beta1 mRNA [2]; 30 nM): 94% | percent inhibition of TGF-beta1 (human TGF-beta1 mRNA [3]; 0.3292 nM): 74% | percent inhibition of TGF-beta1 (human TGF-beta1 mRNA [3]; 0.9877 nM): 84% | percent inhibition of TGF-beta1 (human TGF-beta1 mRNA [3]; 2.963 nM): 92% | percent inhibition of TGF-beta1 (human TGF-beta1 mRNA [3]; 8.8889 nM): 94% | percent inhibition of TGF-beta1 (human TGF-beta1 mRNA [3]; 26.6667 nM): 93% | percent inhibition of TGF-beta1 (human TGF-beta1 mRNA [3]; 80.0 nM): 93% | percent inhibition of TGF-beta1 (human TGF-beta1 mRNA [4]; 0.007 nM): 9% | percent inhibition of TGF-beta1 (human TGF-beta1 mRNA [4]; 0.021 nM): 26% | percent inhibition of TGF-beta1 (human TGF-beta1 mRNA [4]; 0.062 nM): 45% | percent inhibition of TGF-beta1 (human TGF-beta1 mRNA [4]; 0.185 nM): 59% | percent inhibition of TGF-beta1 (human TGF-beta1 mRNA [4]; 0.556 nM): 76% | percent inhibition of TGF-beta1 (human TGF-beta1 mRNA [4]; 1.667 nM): 84% | percent inhibition of TGF-beta1 (human TGF-beta1 mRNA [4]; 5 nM): 90% | percent inhibition of TGF-beta1 (human TGF-beta1 mRNA [4]; 15 nM): 91% | IC50 (human TGF-beta1 mRNA [4]; Lipofectamine 2000, Example 5): 0.13 nM | percent inhibition of TGF-beta1 mRNA relative to untreated control cells (human TGF-beta1 mRNA [5]; 0.15625 nM oligonucleotide): 17% | percent inhibition of TGF-beta1 mRNA relative to untreated control cells (human TGF-beta1 mRNA [5]; 0.3125 nM oligonucleotide): 49% | percent inhibition of TGF-beta1 mRNA relative to untreated control cells (human TGF-beta1 mRNA [5]; 0.625 nM oligonucleotide): 63% | percent inhibition of TGF-beta1 mRNA relative to untreated control cells (human TGF-beta1 mRNA [5]; 1.25 nM oligonucleotide): 77% | percent inhibition of TGF-beta1 mRNA relative to untreated control cells (human TGF-beta1 mRNA [5]; 2.5 nM oligonucleotide): 89% | percent inhibition of TGF-beta1 mRNA relative to untreated control cells (human TGF-beta1 mRNA [5]; 5.00 nM oligonucleotide): 94% | percent inhibition of TGF-beta1 mRNA relative to untreated control cells (human TGF-beta1 mRNA [5]; 10.00 nM oligonucleotide): 94% | percent inhibition of TGF-beta1 mRNA relative to untreated control cells (human TGF-beta1 mRNA [5]; 20 nM oligonucleotide): 94% | tolerability compared to Oligo ID 105204 (BALB/c mice [6]): improved tolerability | alanine transaminase levels (BALB/c mice [7]; 25 mg/kg twice a week, Week 2): 56 IU/L | alanine transaminase levels (BALB/c mice [7]; 25 mg/kg twice a week, Week 4): 45 IU/L | aspartate transaminase levels (BALB/c mice [7]; 25 mg/kg twice a week, Week 2): 82 IU/L | aspartate transaminase levels (BALB/c mice [7]; 25 mg/kg twice a week, Week 4): 116 IU/L | alanine transaminase levels (BALB/c mice [7]; 50 mg/kg twice a week, Week 2): 66 IU/L | alanine transaminase levels (BALB/c mice [7]; 50 mg/kg twice a week, Week 4): 67 IU/L | aspartate transaminase levels (BALB/c mice [7]; 50 mg/kg twice a week, Week 2): 123 IU/L | aspartate transaminase levels (BALB/c mice [7]; 50 mg/kg twice a week, Week 4): 155 IU/L | increase in ALT/AST (BALB/c mice [7]; 25 or 50 mg/kg twice a week for four weeks): < 3 fold

433849 (antisense GTCCTTAAATACAGCCCCGG; listed as DNA, chemistry not given here) [compound 433849]
expression of Col1α2 in rat skin ([8]; 3 mg intradermally on Days 1, 5, 9, 13 post-biopsy, day 14 after skin wounding): significantly reduced | % Col1α2 mRNA compared to the unwounded control ([8]; hairless rats, full-thickness skin wound, 3 mg intradermal on Days 1, 5, 9, 13, day 14 after skin wounding): 83%
